Experiments:
Experiment in all cases: SPR solution competition
Format in all cases: binding
[1] = target: PKA hRIα CNB-B (234–381) (Homo sapiens, UniProt P10644, A336T/G316R)
[2] = target: PKA hRIα CNB-A (115–274) (Homo sapiens, UniProt P10644, T192R)
[3] = target: PKA hRIα CNB-B (234–381) (Homo sapiens, UniProt P10644, A336T/G316R/V315L)
[4] = target: PKA hRIα CNB-B (234–381) (Homo sapiens, UniProt P10644, G316R)
[5] = target: PKA hRIα CNB-B (234–381) (Homo sapiens, UniProt P10644, V315L)
[6] = target: PKA hRIα CNB-A (115–274) (Homo sapiens, UniProt P10644, A212T)
[7] = target: PKA hRIα CNB-B (234–381) (Homo sapiens, UniProt P10644, G316R/V315L)
[8] = target: PKA hRIα CNB-B (234–381) (Homo sapiens, UniProt P10644, A336T)
[9] = target: PKA hRIα CNB-A (115–274) (Homo sapiens, UniProt P10644, A212T/T192R)
[10] = target: PKA hRIα CNB-B (234–381) (Homo sapiens, UniProt P10644)
[11] = target: PKA hRIα CNB-A (115–274) (Homo sapiens, UniProt P10644)

Compound	EC50 [1]	EC50 [2]	EC50 [3]	EC50 [4]	EC50 [5]	EC50 [6]	EC50 [7]	EC50 [8]	EC50 [9]	EC50 [10]	EC50 [11]
Nc1nc2c(ncn2[C@@H]2O[C@@H]3COP(=O)(O)O[C@H]3[C@H]2O)c(=O)[nH]1 [cGMP]	0.4 ± 0.1 nM	1530 ± 53 nM	0.6 ± 0.3 nM	98 ± 41 nM	678 ± 100 nM	83 ± 33 nM	66 ± 2 nM	2 ± 0.1 nM	24 ± 5 nM		
O=c1[nH]cnc2c1ncn2[C@@H]1O[C@@H]2COP(=O)(O)O[C@H]2[C@H]1O [cIMP]		156 ± 5 nM		25 ± 9 nM						114 ± 51 nM	273 ± 16 nM

— paper PMC5896744 (The Biochemical journal, 2017)
